Measurements reported in patent US9469618B2, “Thiadiazolidinediones as GSK-3 inhibitors” (ASD THERAPEUTICS PARTNERS LLC, priority 2012, dated 2016).
In brackets after ≈: the same amount, converted by molar mass.

Experiments:
[1] = target: T1, human recombinant GSK3β (N-terminal 6His-tagged recombinant enzyme with an H350L mutation) (Homo sapiens, UniProt P49841); assay: GSK-3 assay (Z'-LYTE FRET enzymatic activity); format: biochemical; conditions: 2 nM enzyme, 12.5 μM ATP, 2 μM Ser/Thr 9 peptide, 60 min at room temperature; concentration in M units; read-out: GSK-3 inhibition pEC50 average (converted)
T1 construct: 6His (N); purchased Millipore (Billerica, Mass., USA)
Description: The enzymatic activity of GSK3β was determined with a commercial system based on the Z'-LYTE® technology, available from Life Technologies (Carlsbad, Calif., USA), using human recombinant GSK3β (N-terminal 6His-tagged recombinant enzyme with an H350L mutation) from Millipore (Billerica, Mass., USA) as the enzyme source. This technology utilizes the fluorescence resonance energy transfer (“FRET”) process between fluorescein and coumarin. The assay principle is based on the differential sensitivity of phosphorylated and non-phosphorylated peptide to proteolytic cleavage, which precludes the energy transfer process between the two fluorophores attached to both sides of the cleavage site. […] The assay is performed in 384-well black plates, in a final volume of 10 μl, with 2 nM enzyme concentration in 50 mM Hepes pH 7.5, 50 mM MgCl2, 5 mM EGTA and 0.05% Brij-35, using 12.5 μM ATP and 2 μM substrate peptide. The latter is a synthetic peptide, provided by Invitrogen under the commercial name “Ser/Thr 9 peptide”, and it is based upon the sequence of a GSK3β substrate protein (glycogen synthase I) containing Ser-641. The peptide is labeled at both ends with fluorescein and coumarin. The assay is carried out in the presence of different concentrations of the tested compound, at a final 1% (v/v) DMSO concentration. After a 60 min incubation at room temperature, 5 μl of a commercial protease solution (sold by the same vendor in the assay kit) is added and a subsequent 1 h incubation at room temperature is performed, before adding 5 μl of a suitable “stop solution”, also provided by the vendor in the kit. After that, fluorescence intensity is recorded, monitoring emission at both 445 and 520 nm, upon excitation at 400 nm. An emission ratio is finally calculated, using the quotient among the emission at 445 nm divided by that at 520 nm.
The emission ratio of each tested sample is normalized to that of the control wells, so that for every compound concentration the percentage of inhibition is calculated by using the following equation:
[formula] where “S” is the emission from the wells with the tested sample, “E” is the average emission from control wells with full enzyme activity and “B” is the average emission from wells with full enzyme inhibition. Inhibition values obtained for every compound concentration are finally used to calculate the pEC50 of the tested compound, this parameter being the negative value of the logarithm of the compound concentration, in M units, causing 50% of its maximum effect (i.e., the higher the pEC50 value the higher the potency of the compound). For that purpose the data were fitted to the following equation using the nonlinear regression function of GraphPad™ Prism 5.0 (GraphPad Software Inc.): […]

[2] = Thermodynamic solubility of TDZDs; format: physicochemical; conditions: phosphate buffered saline, aqueous buffer, thermodynamic from solid; aqueous 0.01 M PBS pH 7.4, 2 mg/mL samples, 24 hours mixing, LC-UV
Description: Thermodynamic solubility was determined in duplicate from samples with a compound concentration of 2 mg/mL in aqueous 0.01 M phosphate buffered saline (PBS) pH 7.4 with a mixing period of 24 hours. Analysis and quantification was performed by LC-UV. Calibration lines were prepared for each compound from samples at of 1.0, 0.1, 0.01 and 0.001 mg/mL concentration in acetonitrile.

T1 sequence (P49841 whole entry, stated change not applied): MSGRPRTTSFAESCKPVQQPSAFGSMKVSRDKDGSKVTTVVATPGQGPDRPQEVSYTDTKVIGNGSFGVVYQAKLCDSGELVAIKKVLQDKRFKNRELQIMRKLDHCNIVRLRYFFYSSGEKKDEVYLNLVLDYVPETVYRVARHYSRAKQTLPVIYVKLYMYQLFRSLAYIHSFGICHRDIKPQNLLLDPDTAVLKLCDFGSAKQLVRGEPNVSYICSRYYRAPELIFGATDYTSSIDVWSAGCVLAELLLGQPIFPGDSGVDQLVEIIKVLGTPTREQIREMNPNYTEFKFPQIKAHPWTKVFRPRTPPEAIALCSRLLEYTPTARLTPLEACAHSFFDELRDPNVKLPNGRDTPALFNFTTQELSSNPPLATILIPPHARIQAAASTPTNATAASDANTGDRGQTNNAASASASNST

Structure (SMILES)	EC50 [1]	solubility thermodynamic at 24 h [2]
CCOC(=O)Cn1c(=O)sn(C(Cc2ccccc2)C(=O)OCC)c1=O (stereo not drawn) [Compound 3]	25.1 nM	22 µg/mL (≈ 57.8 µM)
O=c1sn(-c2cccc3ccccc23)c(=O)n1Cc1ccccc1 [Compound 5, reference compound]	–	≤ 1 µg/mL

Further lines, results first:

EC50 [1]	solubility thermodynamic at 24 h [2]	Structure (SMILES)
631 nM	617 µg/mL (≈ 2610 µM)	CCn1c(=O)sn(Cc2ccccc2)c1=O [Compound 1, 2-benzyl-4-ethyl-[1,2,4]thiadiazolidine-3,5-dione]
2000 nM	1030 µg/mL (≈ 3520 µM)	O=c1sn(Cc2ccccc2)c(=O)n1CC1CCCO1 (stereo not drawn) [Compound 2, 2-benzyl-4-(tetrahydro-furan-2-ylmethyl)-[1,2,4]thiadiazolidine-3,5-dione]
1580 nM	1840 µg/mL (≈ 7300 µM)	O=c1sn(Cc2ccccc2)c(=O)n1CCO [Compound 4, 2-benzyl-4-(2-hydroxy-ethyl)-[1,2,4]thiadiazolidine-3,5-dione]
